Measured values taken from paper PMC6273991, “Cytotoxic Labdane Diterpenes from Hedychium ellipticum Buch.-Ham. ex Sm” (Molecules, 2016).
pIC50: −log10 of the molar value. Converted amounts (≈) assume the structure as drawn. “And” between values parts separate entries of the source, which are not always exact repeats. Equal entries are not always repeated. Where two headings read alike, the source gives them in different places.

What was measured:
[1] = tested on: human oral cavity cancer cell (KB); test: Cytotoxicity, resazurin microplate assay (REMA), KB; conditions: for IC50 / pIC50: Homo sapiens, KB, 120 h, read-out: Cytotoxicity (IC50) KB, KB cells, REMA, 5 days; for pIC50: value in parentheses; for Selectivity Index KB: IC50 on Vero cells divided by IC50 for KB cells; for Cytotoxicity (IC50) KB: KB cells, REMA, 5 days
[2] = tested on: human small cell lung cancer cell (NCI-H187); test: Cytotoxicity, resazurin microplate assay (REMA), NCI-H187; conditions: for IC50: Homo sapiens, NCI-H187, 120 h, read-out: Cytotoxicity (IC50) NCI-H187; for Selectivity Index NCI-H187: IC50 on Vero cells divided by IC50 for NCI-H187 cells
[3] = tested on: Mycobacterium tuberculosis H37Ra; test: Antimycobacterial activity, green fluorescent protein microplate assay (GFPMA); type: cell-based; conditions: M. tuberculosis H37Ra, MIC = lowest concentration effecting inhibition of ≥90%; for MIC: Mycobacterium tuberculosis, read-out: Anti-TB (MIC)
Method: The antimycobacterial activity was assessed against Mycobacterium tuberculosis H37Ra using the green fluorescent protein microplate assay (GFPMA). The lowest drug concentration effecting and inhibition of ≥90% was considered the MIC.

in vitro = conditions: African green monkey, Vero cells (African green monkey kidney, non-cancerous)
[4] = tested on: human breast cancer cell (MCF7); test: Cytotoxicity, resazurin microplate assay (REMA), MCF7; conditions: for IC50: Homo sapiens, MCF7, 120 h, read-out: Cytotoxicity (IC50) MCF7; for Selectivity Index MCF7: IC50 on Vero cells divided by IC50 for MCF7 cells; for Cytotoxicity (IC50) MCF7: MCF7 cells, REMA, 5 days
B16 cells = tested on: B16 cells; set-up: method as in PMID 9873721; conditions: cited from earlier work
NCI-H187 cell = conditions: cited from earlier work
SNU-1 cells = tested on: SNU-1 cells; set-up: method as in PMID 9873721; conditions: cited from earlier work
P388 cells = tested on: P388 cells; set-up: method as in PMID 9873721; conditions: cited from earlier work
V-79 cell = tested on: V-79 cell; set-up: method as in PMID 3222377, PMID 21106458; conditions: cited from earlier work
HeLa cells = tested on: HeLa cells; set-up: method as in PMID 21106458; conditions: cited from earlier work
KB cell = tested on: KB cell; set-up: method as in PMID 18932088; conditions: cited from earlier work
MCF-7 cells = tested on: MCF-7 cells; set-up: method as in PMID 21106458; conditions: read-out: LC50 MCF-7 cells; cited from earlier work
A-549 cell line = tested on: A-549 cell line; set-up: method as in PMID 21106458; conditions: read-out: LC50 A-549 cell line; cited from earlier work
SK-N-SH cells = tested on: SK-N-SH cells; set-up: method as in PMID 21106458; conditions: read-out: LC50 SK-N-SH cells; cited from earlier work
[5] = tested on: African green monkey kidney (Vero) cell line; test: Cytotoxicity against non-cancerous cells, GFP detection; conditions: 4 days, Undetectable = at concentration ≤50 μg/mL

Row | SMILES | IC50 [1] [µg/mL] | pIC50 [1] | Selectivity Index KB [1] | IC50 [2] | Selectivity Index NCI-H187 [2] | Anti-TB (MIC) [3] | IC50 at 4 days (in vitro) | IC50 [4] | MIC [3] [µg/mL] | further results
1 | C=C1CCC2C(C)(C)CCC[C@]2(C)[C@H]1/C=C/C1=CC(OC)OC1=O (stereo partly drawn) [Compound 6, 15-methoxylabda-8(17),11,13-trien-15,16-olide] | 23.8 | 4.14 | 1.9 | 0.9 µg/mL and 2.72 µM | 50.7 | Inactive | 45.6 µg/mL and 138 µM | 49.2 µg/mL and 149 µM |  | Selectivity Index MCF7 [4]: 0.9
2 | C=C1CC[C@H]2C(C)(C)CCC[C@]2(C)[C@H]1/C=C/c1ccoc1 [Compound 1, coronarin E] | 9.67 | 4.47 | 2.6 | 18.1 µg/mL and 63.5 µM | 1.4 |  | 25.4 µg/mL and 89.2 µM |  | 12.5 (≈ 43.9 µM) | IC50 B16 cells (B16 cells): 18.8 µg/mL (≈ 66.1 µM); pIC50 (NCI-H187 cell): 4.30; IC50 SNU-1 cells (SNU-1 cells): 8.0 µg/mL (≈ 28.1 µM); Cytotoxicity (IC50) MCF7 [4]: Inactive; IC50 P388 cells (P388 cells): 10.0 µg/mL (≈ 35.2 µM)
3 | C=C1CC[C@H]2C(C)(C)CCC[C@]2(C)[C@H]1/C=C/C1=CC(=O)OC1O (stereo partly drawn) [Compound 7, 16-hydroxylabda-8(17),11,13-trien-15,16-olide] | 0.92 | 5.56 | 5.9 | 0.72 µg/mL and 2.18 µM | 7.5 |  | 5.37 µg/mL and 16.2 µM | 2.89 µg/mL and 8.75 µM | 6.25 (≈ 19.8 µM) | Cytotoxicity (IC50) KB [1]: 0.91 µg/mL; Selectivity Index MCF7 [4]: 1.9
4 | CO[C@H]1/C=C/O[C@@]2(C)Oc3c(C)c(O)c4c(O)c(c(/C=N/N5CCN(C)CC5)c(O)c4c3C2=O)NC(=O)/C(C)=C\C=C\[C@H](C)[C@H](O)[C@@H](C)[C@@H](O)[C@@H](C)[C@H](OC(C)=O)[C@@H]1C [rifampicine, reference compound] |  |  |  |  |  |  |  |  | 0.00312 to 0.025 (≈ 0.00379 to 0.0304 µM) | 
5 | C=C1CC[C@H]2C(C)(C)CCC[C@]2(C)[C@H]1C/C=C(/C=O)CC=O [Compound 5, (E)-labda-8(17),12-dien-15,16-dial] | 29.1 | 4.02 | 0.8 | 11.2 µg/mL and 36.9 µM | 2.0 | Inactive | 22.5 µg/mL and 74.5 µM | 22.6 µg/mL and 74.6 µM |  | IC50 V-79 cell (V-79 cell): 18.5 µg/mL (≈ 61.2 µM); Selectivity Index MCF7 [4]: 1.0
6 | C=C1CC[C@H]2C(C)(C)CCC[C@]2(C)[C@H]1C/C=C1\CC(O)OC1=O (stereo partly drawn) [Compound 8, coronarin D] | 40 | 3.90 | 1.2 | 25.7 µg/mL and 80.8 µM | 1.9 | Inactive | 48.9 µg/mL and 154 µM | 16.2 µg/mL and 51 µM |  | IC50 NCI-H187 cell, previous reported (NCI-H187 cell): 9.8 µg/mL (≈ 30.8 µM); LC50 (HeLa cells): 60.6 µM; IC50 V-79 cell (V-79 cell): 17.0 µg/mL (≈ 53.4 µM); Selectivity Index MCF7 [4]: 3.0; IC50 KB cell, previous reported (KB cell): 14.7 µg/mL (≈ 46.2 µM); CC50 (MCF-7 cells): 21.9 µM; CC50 (A-549 cell line): 14 µM; CC50 (SK-N-SH cells): 32 µM
7 | NNC(=O)c1ccncc1 [isoniazid, reference compound] |  |  |  |  |  |  |  |  | 0.0234 to 0.0468 (≈ 0.171 to 0.341 µM) | 
8 | C=C1CC[C@H]2C(C)(C)CCC[C@]2(C)[C@H]1/C=C/C(=O)O [Compound 3, (E)-14,15,16-trinorlabda-8(17),11-dien-13-oic acid] |  |  |  | 49.2 µg/mL and 188 µM |  | Inactive | > 191 µM |  |  | Cytotoxicity (IC50) KB [1]: Inactive; Cytotoxicity (IC50) Vero Cell [5]: Undetectable ^2; Cytotoxicity (IC50) MCF7 [4]: Inactive
9 | COc1cccc2c1C(=O)c1c(O)c3c(c(O)c1C2=O)C[C@@](O)(C(=O)CO)C[C@@H]3O[C@H]1C[C@H](N)[C@H](O)[C@H](C)O1 [Doxorubicin, reference compound] | 0.117 | 6.66 |  | 0.053 µg/mL and 100 nM |  |  |  | 0.663 µg/mL and 1.22 µM |  | 
10 | CC[C@@H](CO)NCCN[C@@H](CC)CO [ethambutol, reference compound] |  |  |  |  |  |  |  |  | 0.234 to 0.469 (≈ 1.15 to 2.3 µM) | 
11 | C=C1CC[C@H]2C(C)(C)CCC[C@]2(C)[C@H]1CC=C(C=O)CC(=O)O (stereo in doubt) [Compound 9, zerumin A] | 47.4 | 3.83 | 1.0 | 33.5 µg/mL and 105 µM | 1.5 | Inactive | 49.5 µg/mL and 155 µM |  |  | Cytotoxicity (IC50) MCF7 [4]: Inactive
12 | CC1COc2c(N3CCN(C)CC3)c(F)cc3c(=O)c(C(=O)O)cn1c23 (stereo not drawn) [oflaxacin, reference compound] |  |  |  |  |  | 0.391 to 0.781 µg/mL |  |  |  | 
13 | C=C1CC[C@H]2C(C)(C)CCC[C@]2(C)[C@H]1/C=C/C(C)=O [Compound 2, (E)-15,16-bisnorlabda-8(17),11-dien-13-one] | 37 | 3.85 |  | 21.7 µg/mL and 83.2 µM |  | Inactive | > 192 µM | 49.2 µg/mL and 189 µM |  | Cytotoxicity (IC50) Vero Cell [5]: Undetectable ^2; melting point: 146 to 147 °C
14 | [H]/N=C(/N)N[C@H]1[C@H](O)[C@@H](O)[C@H](O[C@@H]2O[C@@H](C)[C@](O)(C=O)[C@H]2O[C@@H]2O[C@@H](CO)[C@H](O)[C@@H](O)[C@@H]2NC)[C@@H](N/C(N)=N\[H])[C@@H]1O [streptomycin, reference compound] |  |  |  |  |  |  |  |  | 0.156 to 0.313 (≈ 0.268 to 0.538 µM) | 
15 | Cc1c2ccncc2c(C)c2c1[nH]c1ccccc12 [Ellipticine, reference compound] | 0.302 | 5.91 | 4.5 | 0.44 µg/mL and 1.79 µM | 3.1 |  | 1.34 µg/mL and 5.46 µM |  |  | 
16 | C=C1CC[C@H]2C(C)(C)CCC[C@]2(C)[C@H]1/C=C/C1=CCOC1=O [Compound 4, villosin] | 4.1 | 4.86 |  | 0.12 µg/mL and 400 nM | >416.7 | Inactive | > 166 µM | 8.5 µg/mL and 28.3 µM |  | Cytotoxicity (IC50) Vero Cell [5]: Undetectable ^2
17 | C=C1CC[C@H]2C(C)(C)CCC[C@]2(C)[C@H]1C[C@@H](O)C1=CC(O)OC1=O (stereo partly drawn) [Compound 10, zerumin B] | 13.1 | 4.41 | 1.9 | 6.14 µg/mL and 18.4 µM | 4.0 | Inactive | 24.7 µg/mL and 73.8 µM | 13.3 µg/mL and 39.7 µM |  | Selectivity Index MCF7 [4]: 1.9
